Results reported in patent US20150183737A1, “COMPOSITIONS AND METHODS FOR SUBSTRATE-SELECTIVE INHIBITION OF ENDOCANNABINOID OXYGENATION” (Vanderbilt University, priority 2012, published 2015).
Where two headings read alike, the source gives them in different places.

Tests used:
purified murine COX-2 [1] = biological target: T1, purified murine COX-2 (Mus musculus, UniProt Q05769); assay: Inhibition of mCOX-2 dependent oxygenation of 2-AG and AA by profens in vitro; format: biochemical; set-up: made in house; host or cells: insect cells
T1 sequence (Q05769 18-604): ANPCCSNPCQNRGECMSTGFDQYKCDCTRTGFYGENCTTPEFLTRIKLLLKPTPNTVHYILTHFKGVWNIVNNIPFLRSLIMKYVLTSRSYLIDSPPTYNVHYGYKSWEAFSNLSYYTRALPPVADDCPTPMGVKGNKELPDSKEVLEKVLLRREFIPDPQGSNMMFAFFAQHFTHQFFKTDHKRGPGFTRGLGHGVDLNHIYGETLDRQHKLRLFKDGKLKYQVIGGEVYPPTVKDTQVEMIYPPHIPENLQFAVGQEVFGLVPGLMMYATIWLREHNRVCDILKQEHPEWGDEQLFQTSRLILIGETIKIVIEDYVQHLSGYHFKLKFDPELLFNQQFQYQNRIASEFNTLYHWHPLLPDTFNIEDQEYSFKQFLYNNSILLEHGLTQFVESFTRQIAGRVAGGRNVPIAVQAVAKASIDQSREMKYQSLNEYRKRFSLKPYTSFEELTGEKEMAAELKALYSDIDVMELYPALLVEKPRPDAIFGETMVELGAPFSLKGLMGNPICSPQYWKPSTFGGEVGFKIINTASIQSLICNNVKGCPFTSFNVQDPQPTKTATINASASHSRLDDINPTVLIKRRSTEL
Protocol: Desired concentrations of inhibitor in DMSO or blank (DMSO) were incubated with mCOX-2 (40 nM) for 3 minutes in 100 mM Tris-HCl with 0.5 mM phenol, pH 8.0 at 37° C. After pre-incubation of enzyme and inhibitor, 5 μM of AA or 2-AG was added at 37° C. Thirty seconds later, the reaction was quenched with 200 μL of ice-cold ethyl acetate containing 0.5% acetic acid (v/v) and 1 μM PGE2-d4 and PGE2-G-d5. The solution was then vortexed and the aqueous layer frozen. The organic layer was removed and evaporated to near-dryness under nitrogen. The samples were reconstituted in 1:1 MeOH:H2O and chromatographed using a LUNA® C18(2) column (50 2 mm, 3 μm; Phenomenex, Torrance, Calif., United States of America). […] Analyte peak areas were normalized to the appropriate internal standard to determine the amount of product formation, and inhibition was determined by normalization to a DMSO control.

[2] = system: brain eCB, AA and PG levels; assay: Brain eCB, NAE, MAG, AA and PG levels after i.p. injection; format: in vivo, mice; conditions: 40 mg/kg
Protocol: 5-7 week old male ICR mice were used for all experiments with the exception of knockout animals (Harlan, Indianapolis, Ind., United States of America). Mice were housed 5 per […]. All behavioral tests were conducted during the light cycle between 0900 and 1700. KO and WT littermate controls for FAAH^(−/−) and COX-2^(−/−) mice were derived from heterozygote breeding pairs, bred and genotyped as described in Uddin et al., 2011. CB1^(−/−) mice were bred from homozygote breeding pairs and genotyped as described in Pan et al., 2008. Mice were group-housed on a 12:12 light-dark cycle (lights on at 06:00), with food and water available ad libitum. All animal studies were approved by the Vanderbilt Institutional Animal Care and Use Committee and conducted in accordance with the Guide for the Care and Use of Laboratory Animals of the United States National Institutes of Health.
Mice were sacrificed by cervical dislocation and decapitation. The brain, lungs, liver, stomach, small intestines, and kidneys were then rapidly removed and frozen on a metal block in dry ice. The tissue was then placed in a tube and stored at −80° C. until extraction, usually one day after harvesting. For PG and eCB analysis, lipid extraction from tissue was carried out as described in Patel et al., 2009.
Analytes were quantified using LC-MS/MS on a Quantum triple-quadrupole mass spectrometer in positive-ion mode using selected reaction monitoring. Detection of eicosanoids was performed as described in Kingsley & Marnett, 2007. For fatty acid analysis the mobile phases used were 80 μM AgOAc with 0.1% (v/v) acetic acid in H2O (solvent A) and 120 μM AgOAc with 0.1% (v/v) acetic acid in MeOH (solvent B). The analytes were eluted using a gradient from 20% A to 99% B over 5 minutes. The transitions used were m/z 300→282 for PEA, m/z 328→310 for SEA, m/z 434→416 for OEA, m/z 456→438 for AEA, m/z 464→446 for AEA-d8, m/z 331→257 for 2-PG, m/z 359→285 for 2-SG, m/z 463→389 for 2-OG, m/z 485→411 for 2-AG, m/z 493→419 for 2-AG-d8, m/z 519→409 for AA, and m/z 527→417 for AA-d8. Peak areas for the analytes were normalized to the appropriate internal standard and then normalized to tissue mass for in vivo samples.

purified murine COX-2 [3] = biological target: T1, purified murine COX-2; assay: Inhibition of mCOX-2-dependent oxygenation of 2-AG and AA by lumiracoxib and derivatives in vitro; format: biochemical; set-up: made in house; host or cells: insect cells; dose or concentration left out as unconfirmed
[4] = achiral profens, at 10 μM inhibitor, AA 5 μM, read-out: AA % Inhibition
[5] = achiral profens, murine COX-2 40 nM, 3 min preincubation, 2-AG 5 μM, 37° C., 30 s, mean ± SD, read-out: 2-AG IC50
[6] = 15 min incubation, read-out: Maximum inhibition of AA oxygenation (converted)
[7] = inhibitor incubated with enzyme for 15 min before addition of substrate, read-out: AA IC50
[8] = 0.5 min, achiral profens, murine COX-2 40 nM, 3 min preincubation, 2-AG 5 μM, 37° C., 30 s, mean ± SD, read-out: 2-AG IC50
[9] = read-out: Maximum inhibition of 2-AG oxygenation, achiral profens, at 10 μM inhibitor, 2-AG 5 μM
[10] = chiral profens, murine COX-2 40 nM, 3 min preincubation, 2-AG 5 μM, mean ± SD, read-out: IC50 (μM) 2-AG
[11] = chiral profens, at 10 μM inhibitor, AA 5 μM, read-out: % Inhibition AA

## O=C(O)C1(c2cccc(Oc3ccccc3)c2)CC1 [Compound 5d, 1-(3-phenoxyphenol)cyclopropanecarboxylic acid]
Purified murine COX-2 [1]; [4]
  inhibition at 10 µM: 15%
Purified murine COX-2 [1]; [5]
  IC50: 5 µM

## O=C(Oc1ccc([N+](=O)[O-])cc1)N1CCC(C(O)(c2ccc3c(c2)OCO3)c2ccc3c(c2)OCO3)CC1 [JZL-184, reference compound]
[2]
  Brain levels of 2-AG and 3 other MAG species: increased

## Cc1ccc(Nc2c(F)cccc2F)c(CC(=O)O)c1 [Compound 106]
Purified murine COX-2 [3]; [6]
  inhibition: 0%
Purified murine COX-2 [3]; [7]
  inhibition: < 50%

## O=C(O)Cc1cccc(C(=O)c2ccccc2)c1 [Compound 3e, Desmethylketoprofen]
Purified murine COX-2 [1]; [4]
  inhibition at 10 µM: 10%
Purified murine COX-2 [1]; [5]
  IC50: 0.5 µM

## CC(C)Cc1ccc(C(C)(C)C(=O)O)cc1 [Compound 4c, 2-(4-isobutylphenyl)-2-methylpropanoic acid]
Purified murine COX-2 [1]; [8]
  inhibition at 10 µM: < 50%
Purified murine COX-2 [1]; [4]
  inhibition at 10 µM: 5%
Purified murine COX-2 [1]; [9]
  inhibition at 10 µM: 5%

## COc1ccc2cc(C(C)(C)C(=O)O)ccc2c1 [Compound 4b, 2-(6-methoxynaphthalen-2-yl)-2-methylpropanoic acid]
Purified murine COX-2 [1]; [8]
  inhibition at 10 µM: < 50%
Purified murine COX-2 [1]; [4]
  inhibition at 10 µM: 7%
Purified murine COX-2 [1]; [9]
  inhibition at 10 µM: 12%

## CC(C)Cc1ccc(CC(=O)O)cc1 [Compound 3c, 2-(4-isobutylphenyl)acetic acid]
Purified murine COX-2 [1]; [4]
  inhibition at 10 µM: 14%
Purified murine COX-2 [1]; [5]
  IC50: 5.5 µM

## O=C(O)Cc1cccc(Oc2ccccc2)c1 [Compound 3d, 2-(3-phenoxyphenyl)acetic acid]
Purified murine COX-2 [1]; [4]
  inhibition at 10 µM: 24%
Purified murine COX-2 [1]; [5]
  IC50: 6.1 µM
Purified murine COX-2 [1]; [9]
  inhibition at 10 µM: 68%

## C[C@H](C(=O)O)c1cccc(C(=O)c2ccccc2)c1 [(S)-ketoprofen, reference compound]
Purified murine COX-2 [1]; [10]
  IC50: 0.2 µM
Purified murine COX-2 [1]; read-out: % Inhibition AA
  inhibition at 10 µM: 55%

## COc1ccc2cc(CC(=O)O)ccc2c1 [Compound 3b, 2-(6-methoxynaphthalen-2-yl)acetic acid]
Purified murine COX-2 [1]; [4]
  inhibition at 10 µM: 16%
Purified murine COX-2 [1]; [5]
  IC50: 1.4 µM

## CC(C)(C(=O)O)c1cccc(C(=O)c2ccccc2)c1 [Compound 4e, 2-(3-benzoylphenyl)-2-methylpropanoic acid]
Purified murine COX-2 [1]; [4]
  inhibition at 10 µM: 32%
Purified murine COX-2 [1]; [5]
  IC50: 3 µM

## O=C(O)Cc1ccccc1Nc1c(F)cccc1F [Compound 114]
Purified murine COX-2 [3]; read-out: AA IC50 (mM)
  inhibition: < 50%

## O=C(O)Cc1ccccc1Nc1c(Cl)cc(Br)cc1Cl [Compound 116]
Purified murine COX-2 [3]; [6]
  inhibition: 55%

## Cc1ccc(Nc2c(C)cccc2F)c(CC(=O)O)c1 [Compound 107]
Purified murine COX-2 [3]; [7]
  inhibition: < 50%

## O=C(O)Cc1ccccc1Nc1ccccc1F [Compound 111]
Purified murine COX-2 [3]; [6]
  inhibition: 0%
Purified murine COX-2 [3]; [7]
  inhibition: < 50%

## C[C@@H](C(=O)O)c1cccc(C(=O)c2ccccc2)c1 [Compound 7e, (R)-ketoprofen]
Purified murine COX-2 [1]; [10]
  IC50: 7.3 µM
Purified murine COX-2 [1]; read-out: % Inhibition AA
  inhibition at 10 µM: 20%
Purified murine COX-2 [1]; read-out: Maximum inhibition of 2-AG oxygenation
  inhibition at 10 µM: 56%

## Cc1ccc(Nc2ccccc2)c(CC(=O)O)c1 [Compound 104]
Purified murine COX-2 [3]; [6]
  inhibition: 10%
Purified murine COX-2 [3]; [7]
  inhibition: < 50%

## CC(C(=O)O)c1cccc(Oc2ccccc2)c1 (racemic) [Compound 6d, fenoprofen, reference compound]
Purified murine COX-2 [1]; [11]
  inhibition at 10 µM: 20%
Purified murine COX-2 [1]; [10]
  IC50: 0.9 µM

## O=C(c1ccccc1)c1cccc(C2(C(=O)O)CC2)c1 [Compound 5e, 1-(3-benzoylphenyl)cyclopropanecarboxylic acid]
Purified murine COX-2 [1]; [4]
  inhibition at 10 µM: 10%
Purified murine COX-2 [1]; [5]
  IC50: 4.1 µM
Purified murine COX-2 [1]; [9]
  inhibition at 10 µM: 75%

## O=C(O)Cc1ccccc1Nc1ccccc1 [Compound 112]
Purified murine COX-2 [3]; read-out: AA IC50 (mM)
  inhibition: < 50%

## Cc1cccc(F)c1Nc1ccccc1CC(=O)O [Compound 115]
Purified murine COX-2 [3]; [6]
  inhibition: 0%
Purified murine COX-2 [3]; [7]
  inhibition: < 50%

## Cc1ccc(Nc2c(Cl)cc(Cl)cc2Cl)c(CC(=O)O)c1 [Compound 108]
Purified murine COX-2 [3]; [6]
  inhibition: 32%
Purified murine COX-2 [3]; [7]
  inhibition: < 50%

## Cc1ccc(Nc2c(F)cccc2Cl)c(CC(=O)O)c1 [Compound 101]
Purified murine COX-2 [3]; read-out: AA IC50 (mM)
  inhibition: < 50%

## Cc1ccc(Nc2ccccc2F)c(CC(=O)O)c1 [Compound 103]
Purified murine COX-2 [3]; [6]
  inhibition: 0%
Purified murine COX-2 [3]; [7]
  inhibition: < 50%

## CC(C)(C(=O)O)c1cccc(Oc2ccccc2)c1 [Compound 4d, 2-methyl-2-(3-phenoxyphenyl)propanoic acid]
Purified murine COX-2 [1]; [4]
  inhibition at 10 µM: 17%
Purified murine COX-2 [1]; [5]
  IC50: 7.3 µM
Purified murine COX-2 [1]; [9]
  inhibition at 10 µM: 65%

## O=C(O)Cc1ccccc1Nc1c(F)cccc1Cl [Compound 109]
Purified murine COX-2 [3]; read-out: AA IC50 (mM)
  inhibition: < 50%

## CC(C)Cc1ccc(C2(C(=O)O)CC2)cc1 [Compound 5c, 1-(4-isobutylphenyl)cyclopropanecarboxylic acid]
Purified murine COX-2 [1]; [8]
  inhibition at 10 µM: < 50%
Purified murine COX-2 [1]; [4]
  inhibition at 10 µM: 10%
Purified murine COX-2 [1]; [9]
  inhibition at 10 µM: 45%

## C[C@H](C(=O)O)c1cccc(Oc2ccccc2)c1 [(S)-fenoprofen, reference compound]
Purified murine COX-2 [1]; chiral profens, at 10 μM inhibitor, AA 5 μM
  % Inhibition AA: 30%
Purified murine COX-2 [1]; [10]
  IC50: 0.9 µM

## CC(C(=O)O)c1cccc(C(=O)c2ccccc2)c1 (racemic) [Compound 6e, ketoprofen, reference compound]
Purified murine COX-2 [1]; [10]
  IC50: 0.3 µM
Purified murine COX-2 [1]; read-out: % Inhibition AA
  inhibition at 10 µM: 50%

## COc1ccc2cc(C3(C(=O)O)CC3)ccc2c1 [Compound 5b, 1-(6-methoxynaphthalen-2-yl)cyclopropanecarboxylic acid]
Purified murine COX-2 [1]; [4]
  inhibition at 10 µM: 6%
Purified murine COX-2 [1]; [5]
  IC50: 3.4 µM
Purified murine COX-2 [1]; [9]
  inhibition at 10 µM: 77%

## C[C@@H](C(=O)O)c1cccc(Oc2ccccc2)c1 [Compound 7d, (R)-Fenoprofen]
Purified murine COX-2 [1]; [11]
  inhibition at 10 µM: 10%
Purified murine COX-2 [1]; read-out: IC50 (μM) 2-AG
  inhibition at 10 µM: < 50%
Purified murine COX-2 [1]; read-out: Maximum inhibition of 2-AG oxygenation, chiral profens, at 10 μM inhibitor, 2-AG 5 μM
  inhibition at 10 µM: 25%

## Cc1ccc(Nc2ccccc2Cl)c(CC(=O)O)c1 [Compound 102]
Purified murine COX-2 [3]; [6]
  inhibition: 0%
Purified murine COX-2 [3]; [7]
  inhibition: < 50%

## Cc1ccc(Nc2c(Cl)cccc2Cl)c(CC(=O)O)c1 [Compound 105]
Purified murine COX-2 [3]; [6]
  inhibition: 60%

## O=C(O)Cc1ccccc1Nc1ccccc1Cl [Compound 110]
Purified murine COX-2 [3]; read-out: AA IC50 (mM)
  inhibition: < 50%
